{"source": "ChEMBL document CHEMBL1275550", "about": "“In vitro activity of doripenem, a carbapenem for the treatment of challenging infections caused by gram-negative bacteria, against recent clinical isolates from the United States” (2008)", "key": {"[1]": {"system": "Pseudomonas aeruginosa", "experiment": "Antimicrobial activity against Ceftazidime susceptible Pseudomonas aeruginosa by broth microdilution method", "type": "functional"}, "[2]": {"system": "Enterobacter cloacae", "experiment": "Antimicrobial activity against Enterobacter cloacae with nonderepressed AmpC beta-lactamsae by broth microdilution method", "type": "functional"}, "[3]": {"system": "Enterobacteriaceae", "experiment": "Antimicrobial activity against Enterobacteriaceae by broth microdilution method", "type": "functional"}, "[4]": {"system": "Pseudomonas aeruginosa", "experiment": "Antimicrobial activity against imipenem susceptible Pseudomonas aeruginosa by broth microdilution method", "type": "functional"}, "[5]": {"system": "Enterobacteriaceae", "experiment": "Antimicrobial activity against ceftazidime-susceptible Enterobacteriaceae by broth microdilution method", "type": "functional"}, "[6]": {"system": "Pseudomonas aeruginosa", "experiment": "Antimicrobial activity against Pseudomonas aeruginosa assessed as susceptible isolate by broth microdilution method", "type": "functional"}, "[7]": {"system": "Enterobacteriaceae", "experiment": "Antimicrobial activity against ceftazidime-susceptible Enterobacteriaceae assessed as susceptible isolate by broth microdilution method", "type": "functional"}, "[8]": {"system": "Proteus mirabilis", "experiment": "Antimicrobial activity against Non-ESBL Proteus mirabilis by broth microdilution method", "type": "functional"}, "[9]": {"system": "Acinetobacter", "experiment": "Antimicrobial activity against Acinetobacter assessed as susceptible isolate by broth microdilution method", "type": "functional"}, "[10]": {"system": "Acinetobacter", "experiment": "Antimicrobial activity against Acinetobacter by broth microdilution method", "type": "functional"}, "[11]": {"system": "Acinetobacter", "experiment": "Antimicrobial activity against imipenem non-susceptible Acinetobacter by broth microdilution method", "type": "functional"}, "[12]": {"system": "Serratia marcescens", "experiment": "Antimicrobial activity against Ceftazidime susceptible Serratia marcescens assessed as susceptible isolate by broth microdilution method", "type": "functional"}, "[13]": {"system": "Enterobacter cloacae", "experiment": "Antimicrobial activity against Enterobacter cloacae assessed as susceptible isolate by broth microdilution method", "type": "functional"}, "[14]": {"system": "Serratia marcescens", "experiment": "Antimicrobial activity against Serratia marcescens by broth microdilution method", "type": "functional"}, "[15]": {"system": "Proteus mirabilis", "experiment": "Antimicrobial activity against ESBL producing Proteus mirabilis by broth microdilution method", "type": "functional"}, "[16]": {"system": "Acinetobacter", "experiment": "Antimicrobial activity against imipenem susceptible Acinetobacter by broth microdilution method", "type": "functional"}, "[17]": {"system": "Escherichia coli", "experiment": "Antimicrobial activity against Escherichia coli assessed as susceptible isolate by broth microdilution method", "type": "functional"}, "[18]": {"system": "Serratia marcescens", "experiment": "Antimicrobial activity against Ceftazidime non-susceptible Serratia marcescens by broth microdilution method", "type": "functional"}, "[19]": {"system": "Pseudomonas aeruginosa", "experiment": "Antimicrobial activity against Pseudomonas aeruginosa isolated from ICU patient assessed as susceptible isolate by broth microdilution method"}, "[20]": {"system": "Streptococcus pneumoniae", "experiment": "Antimicrobial activity against penicillin-susceptible Streptococcus pneumoniae by broth microdilution method", "type": "functional", "settings": "Streptococcus pneumoniae"}, "[21]": {"system": "Enterobacter cloacae", "experiment": "Antimicrobial activity against Enterobacter cloacae by broth microdilution method", "type": "functional"}, "[22]": {"system": "Pseudomonas aeruginosa", "experiment": "Antimicrobial activity against imipenem non-susceptible Pseudomonas aeruginosa by broth microdilution method", "type": "functional"}, "[23]": {"system": "Escherichia coli", "experiment": "Antimicrobial activity against ESBL producing Escherichia coli assessed as susceptible isolate by broth microdilution method", "type": "functional"}, "[24]": {"system": "Acinetobacter", "experiment": "Antimicrobial activity against imipenem non-susceptible Acinetobacter assessed as susceptible isolate by broth microdilution method", "type": "functional"}, "[25]": {"system": "Citrobacter", "experiment": "Antimicrobial activity against Citrobacter by broth microdilution method", "type": "functional"}, "[26]": {"system": "Escherichia coli", "experiment": "Antimicrobial activity against Escherichia coli by broth microdilution method", "type": "functional"}, "[27]": {"system": "Serratia marcescens", "experiment": "Antimicrobial activity against Ceftazidime susceptible Serratia marcescens by broth microdilution method", "type": "functional"}, "[28]": {"system": "Escherichia coli", "experiment": "Antimicrobial activity against Non-ESBL Escherichia coli by broth microdilution method", "type": "functional"}, "[29]": {"system": "Pseudomonas aeruginosa", "experiment": "Antimicrobial activity against Pseudomonas aeruginosa by broth microdilution method", "type": "functional"}, "[30]": {"system": "Enterobacteriaceae", "experiment": "Antimicrobial activity against Ceftazidime non-susceptible Enterobacteriaceae by broth microdilution method", "type": "functional"}, "[31]": {"system": "Proteus mirabilis", "experiment": "Antimicrobial activity against ESBL producing Proteus mirabilis assessed as susceptible isolate by broth microdilution method", "type": "functional"}, "[32]": {"system": "Serratia marcescens", "experiment": "Antimicrobial activity against Ceftazidime non-susceptible Serratia marcescens assessed as susceptible isolate by broth microdilution method", "type": "functional"}, "[33]": {"system": "Citrobacter", "experiment": "Antimicrobial activity against Citrobacter with derepressed AmpC beta-lactamsae assessed as susceptible isolate by broth microdilution method", "type": "functional"}, "[34]": {"system": "Citrobacter", "experiment": "Antimicrobial activity against Citrobacter assessed as susceptible isolate by broth microdilution method", "type": "functional"}, "[35]": {"system": "Klebsiella pneumoniae", "experiment": "Antimicrobial activity against Non-ESBL Klebsiella pneumoniae assessed as susceptible isolate by broth microdilution method", "type": "functional"}, "[36]": {"system": "Enterobacteriaceae", "experiment": "Antimicrobial activity against Enterobacteriaceae assessed as susceptible isolate by broth microdilution method", "type": "functional"}, "[37]": {"system": "Escherichia coli", "experiment": "Antimicrobial activity against ESBL producing Escherichia coli by broth microdilution method", "type": "functional"}, "[38]": {"system": "Pseudomonas aeruginosa", "experiment": "Antimicrobial activity against Ceftazidime non-susceptible Pseudomonas aeruginosa assessed as susceptible isolate by broth microdilution method", "type": "functional"}, "[39]": {"system": "Pseudomonas aeruginosa", "experiment": "Antimicrobial activity against imipenem susceptible Pseudomonas aeruginosa assessed as susceptible isolate by broth microdilution method", "type": "functional"}, "[40]": {"system": "Pseudomonas aeruginosa", "experiment": "Antimicrobial activity against Ceftazidime non-susceptible Pseudomonas aeruginosa by broth microdilution method", "type": "functional"}}}
{"smiles": "C[C@@H](O)[C@H]1C(=O)N2C(C(=O)O)=C(S[C@@H]3CN[C@H](CNS(N)(=O)=O)C3)[C@H](C)[C@H]12", "note": "[DORIPENEM]", "values": [{"measurement": "MIC50", "setting": "[1]", "result": 0.25, "unit": "µg/mL"}, {"measurement": "MIC90", "setting": "[1]", "result": 2, "unit": "µg/mL"}, {"measurement": "MIC50", "setting": "[2]", "result": 0.03, "unit": "µg/mL"}, {"measurement": "MIC90", "setting": "[2]", "result": 0.06, "unit": "µg/mL"}, {"measurement": "MIC50", "setting": "[3]", "result": 0.03, "unit": "µg/mL"}, {"measurement": "MIC90", "setting": "[3]", "result": 0.12, "unit": "µg/mL"}, {"measurement": "MIC50", "setting": "[4]", "result": 0.25, "unit": "µg/mL"}, {"measurement": "MIC90", "setting": "[4]", "result": 1, "unit": "µg/mL"}, {"measurement": "MIC50", "setting": "[5]", "result": 0.03, "unit": "µg/mL"}, {"measurement": "MIC90", "setting": "[5]", "result": 0.12, "unit": "µg/mL"}, {"measurement": "Activity", "setting": "[6]", "result": 88.3, "unit": "%"}, {"measurement": "Activity", "setting": "[7]", "result": 99.7, "unit": "%"}, {"measurement": "MIC50", "setting": "[8]", "result": 0.12, "unit": "µg/mL"}, {"measurement": "MIC90", "setting": "[8]", "result": 0.5, "unit": "µg/mL"}, {"measurement": "Activity", "setting": "[9]", "result": 73.4, "unit": "%"}, {"measurement": "MIC50", "setting": "[10]", "result": 0.5, "unit": "µg/mL"}, {"measurement": "MIC90", "setting": "[10]", "result": 32, "unit": "µg/mL"}, {"measurement": "MIC50", "setting": "[11]", "result": 32, "unit": "µg/mL"}, {"measurement": "MIC90", "setting": "[11]", "result": "> 32", "unit": "µg/mL"}, {"measurement": "Activity", "setting": "[12]", "result": 98.6, "unit": "%"}, {"measurement": "Activity", "setting": "[13]", "result": 99.2, "unit": "%"}, {"measurement": "MIC50", "setting": "[14]", "result": 0.12, "unit": "µg/mL"}, {"measurement": "MIC90", "setting": "[14]", "result": 0.25, "unit": "µg/mL"}, {"measurement": "MIC", "setting": "[15]", "result": 0.06, "unit": "µg/mL"}, {"measurement": "MIC50", "setting": "[16]", "result": 0.25, "unit": "µg/mL"}, {"measurement": "MIC90", "setting": "[16]", "result": 2, "unit": "µg/mL"}, {"measurement": "Activity", "setting": "[17]", "result": 99.8, "unit": "%"}, {"measurement": "MIC50", "setting": "[18]", "result": 0.12, "unit": "µg/mL"}, {"measurement": "MIC90", "setting": "[18]", "result": 0.25, "unit": "µg/mL"}, {"measurement": "Activity", "setting": "[19]", "result": 78.4, "unit": "%"}, {"measurement": "MIC50", "setting": "[20]", "result": "≤ 0.015", "unit": "µg/mL"}, {"measurement": "MIC90", "setting": "[20]; read-out: MIC90", "result": "≤ 0.015", "unit": "µg/mL"}, {"measurement": "MIC50", "setting": "[21]", "result": 0.03, "unit": "µg/mL"}, {"measurement": "MIC90", "setting": "[21]", "result": 0.12, "unit": "µg/mL"}, {"measurement": "MIC50", "setting": "[22]", "result": 2, "unit": "µg/mL"}, {"measurement": "MIC90", "setting": "[22]", "result": 16, "unit": "µg/mL"}, {"measurement": "Activity", "setting": "[23]", "result": 100, "unit": "%"}, {"measurement": "Activity", "setting": "[24]", "result": 0, "unit": "%"}, {"measurement": "MIC50", "setting": "[25]", "result": 0.03, "unit": "µg/mL"}, {"measurement": "MIC90", "setting": "[25]", "result": 0.06, "unit": "µg/mL"}, {"measurement": "MIC", "setting": "[26]", "result": "≤ 0.015", "unit": "µg/mL"}, {"measurement": "MIC50", "setting": "[26]", "result": "≤ 0.015", "unit": "µg/mL"}, {"measurement": "MIC90", "setting": "[26]", "result": 0.03, "unit": "µg/mL"}, {"measurement": "MIC50", "setting": "[27]", "result": 0.12, "unit": "µg/mL"}, {"measurement": "MIC90", "setting": "[27]", "result": 0.25, "unit": "µg/mL"}, {"measurement": "MIC", "setting": "[28]", "result": "≤ 0.015", "unit": "µg/mL"}, {"measurement": "MIC50", "setting": "[28]", "result": "≤ 0.015", "unit": "µg/mL"}, {"measurement": "MIC90", "setting": "[28]", "result": 0.03, "unit": "µg/mL"}, {"measurement": "MIC50", "setting": "[29]", "result": 0.25, "unit": "µg/mL"}, {"measurement": "MIC90", "setting": "[29]", "result": 4, "unit": "µg/mL"}, {"measurement": "MIC50", "setting": "[30]", "result": 0.06, "unit": "µg/mL"}, {"measurement": "MIC90", "setting": "[30]", "result": 0.25, "unit": "µg/mL"}, {"measurement": "Activity", "setting": "[31]", "result": 100, "unit": "%"}, {"measurement": "Activity", "setting": "[32]", "result": 100, "unit": "%"}, {"measurement": "Activity", "setting": "[33]", "result": 100, "unit": "%"}, {"measurement": "Activity", "setting": "[34]", "result": 99.8, "unit": "%"}, {"measurement": "Activity", "setting": "[35]", "result": 99.7, "unit": "%"}, {"measurement": "Activity", "setting": "[36]", "result": 99.5, "unit": "%"}, {"measurement": "MIC50", "setting": "[37]", "result": 0.03, "unit": "µg/mL"}, {"measurement": "MIC90", "setting": "[37]", "result": 0.06, "unit": "µg/mL"}, {"measurement": "Activity", "setting": "[38]", "result": 60.9, "unit": "%"}, {"measurement": "Activity", "setting": "[39]", "result": 98.5, "unit": "%"}, {"measurement": "MIC50", "setting": "[40]", "result": 1, "unit": "µg/mL"}, {"measurement": "MIC90", "setting": "[40]", "result": 16, "unit": "µg/mL"}]}
